Assays:
Type in all cases: in vivo
[1] = test system: nymphs of the brown planthopper; experiment: Root absorption treatment of rice, survival of brown planthopper nymphs; settings: for survival rate of the brown planthopper: 8th day
Protocol: (§1) According to the first preferred embodiment of the present invention, the applied p-Fluorophenoxyacetic acids have concentrations of 1 mg/L and 10 mg/L. The rice is cultivated through the nutrient solution, and planted by each individual rice plant; the p-Fluorophenoxyacetic acid is added into the nutrient solution until a final concentration is 1 mg/L or 10 mg/L; and the nutrient solution without adding the p-Fluorophenoxyacetic acid is adopted as a control group. After treating with the p-Fluorophenoxyacetic acid for 12 hours, a special glass cover (with a diameter of 4 cm, a height of 8 cm, and 48 holes having a diameter of 0.8 mm uniformly provided on a wall) is placed on a stem of each individual rice plant, and 15 newly-hatched nymphs of the brown planthopper or the white-backed planthopper are introduced into each glass cover, wherein a top part of each glass cover is sealed by a circular sponge. The experiment is conducted in a phytotron with a temperature of 28±2° C., a humidity of 70-80% and 14 hours of illumination, survival numbers of the nymphs of the brown planthopper or the white-backed planthopper on each plant are recorded daily, and the experiment is repeated for 10 times.

[2] = test system: nymphs of the white-backed planthopper; experiment: Stomach toxicity in planthopper artificial diet; settings: for survival rate of the nymphs of the white-backed planthopper: artificial diet
Excerpt: In order to exclude possible influences of the p-Fluorophenoxyacetic acid itself on a survival rate of nymphs of the rice planthoppers, the third preferred embodiment of the present invention measures stomach toxicity and contact toxicity of the p-Fluorophenoxyacetic acids having different concentrations on the nymphs of the rice planthoppers. In the experiment for measuring the stomach toxicity of the p-Fluorophenoxyacetic acid on the nymphs of the rice planthoppers, the p-Fluorophenoxyacetic acids, having concentrations of 5 mg/L, 20 mg/L and 50 mg/L, are respectively added into planthopper artificial diets, and another planthopper artificial diet not containing the p-Fluorophenoxyacetic acid is adopted as control. The planthopper artificial diets containing the p-Fluorophenoxyacetic acids of different concentrations are respectively wrapped by a Parafilm sealing film and then placed at two ends (20 μL at one end) of a glass two-way tube having a diameter of 4 cm and a height of 8 cm, and 15 newly-hatched nymphs of the white-backed planthopper are introduced into each tube; wherein the glass two-way tube, in which the planthopper artificial diet not containing the p-Fluorophenoxyacetic acid is placed, is adopted as a control group. All the glass two-way tubes are placed in a phytotron (with a temperature of 28° C. and 12 hours of illumination), the artificial diet in each tube is changed once a day, and the survival number of the nymphs of the white-backed planthopper in each tube is recoded daily. The experiment is repeated for 10 times.

[3] = test system: nymphs of the brown planthopper; experiment: Spray treatment of rice stems and leaves, survival of brown planthopper nymphs; settings: for survival rate of the brown planthopper: 8th day
Protocol: (§2) According to the second preferred embodiment of the present invention, the applied p-Fluorophenoxyacetic acids have concentrations of 20 mg/L and 100 mg/L. The rice is cultivated through the nutrient solution, and planted by each individual rice plant; the p-Fluorophenoxyacetic acid is prepared with water to have a certain concentration (20 mg/L or 100 mg/L), and thereafter stems and leaves of the rice are treated with spraying through a small sprayer; and tap water is adopted as a control group. After drops on the stems and leaves of the rice are totally dry, a special glass cover (with a diameter of 4 cm, a height of 8 cm, and 48 holes having a diameter of 0.8 mm uniformly provided on a wall) is placed on a stem of each individual rice plant, and 15 newly-hatched nymphs of the brown planthopper or the white-backed planthopper are introduced into each glass cover, wherein a top part of each glass cover is sealed by a circular sponge. The experiment is conducted in a phytotron with a temperature of 28±2° C., a humidity of 70-80% and 14 hours of illumination, survival numbers of the nymphs of the brown planthopper and the white-backed planthopper on each plant are recorded daily, and the experiment is repeated for 10 times.

[4] = test system: contents of 4-hydroxybenzoic acid and γ-aminobutyric acid in the rice; experiment: Induced mechanism: contents of defense compounds in rice after root treatment; settings: 5 mg/L in nutrient solution, 72 hours after treating
Protocol: According to the fourth preferred embodiment of the present invention, the applied p-Fluorophenoxyacetic acid has a concentration of 5 mg/L. The rice is cultivated through the nutrient solution, and planted by each individual rice plant; the p-Fluorophenoxyacetic acid is added into the nutrient solution of the rice until a final concentration is 5 mg/L, and another nutrient solution without adding the p-Fluorophenoxyacetic acid is adopted as a control group. The experiment is repeated for 5 times and conduced in a phytotron with a temperature of 28±2° C., a humidity of 70-80%, and 14 hours of illumination. […] The 4-hydroxybenzoic acid belongs to a phenolic acid defense compound, and the γ-aminobutyric acid belongs to a non-protein amino acid, which have direct toxicity effects on the insect pests and are able to influence a peripheral nervous system of the insects. Treating the rice with the p-Fluorophenoxyacetic acid is able to increase contents of the defense compounds, thereby generating a negative effect on the insect pests and increasing a resistance of the rice against the insect pests.

[5] = test system: nymphs of the white-backed planthopper; experiment: Root absorption treatment of rice, survival of white-backed planthopper nymphs
Protocol: as §1

[6] = test system: Third-instar nymphs of the white-backed planthopper; experiment: Contact toxicity, spotting on third-instar nymphs; settings: for survival rates of the nymphs of the planthoppers: spotted 1 μL
Protocol: In the experiment for measuring the contact toxicity of the p-Fluorophenoxyacetic acid on the nymphs of the rice planthoppers, the p-Fluorophenoxyacetic acids respectively having concentrations of 5 mg/L, 20 mg/L, and 50 mg/L are adopted, and distilled water not containing the p-Fluorophenoxyacetic acid is adopted as a control group. Third-instar nymphs of the white-backed planthopper, being narcotized by carbon dioxide, are spotted with the p-Fluorophenoxyacetic acid having the corresponding concentration or the distilled water (1 μL for each planthopper); after waking up, the planthoppers are fed on rice plants having an age of 30 days, wherein 15 planthoppers are fed on each rice plant; and the rice is placed in a phytotron with a temperature of 28±2° C., a humidity of 70-80% and 14 hours of illumination. The experiment is repeated for 10 times. Survival numbers of the nymphs of the planthoppers are observed and recorded respectively 24 hours and 48 hours after treatment.

[7] = test system: nymphs of the white-backed planthopper; experiment: Spray treatment of rice stems and leaves, survival of white-backed planthopper nymphs
Protocol: as §2

[8] = from the 2nd day after treating, FIG. 2

For O=C(O)COc1ccc(F)cc1 [p-Fluorophenoxyacetic acid], the “survival rate of nymphs of the rice planthoppers, maximum decrease” value ([1]; general statement in the summary, rice planthoppers, concentration not given) was “below 10%”, the “survival rate of the brown planthopper” value ([1]; root absorption, 1 mg/L in nutrient solution) was 35.1% and the “survival rate of the brown planthopper” value ([1]; root absorption, 10 mg/L in nutrient solution) was 1.5%. The “survival rates of the nymphs of the brown planthopper, course” value ([1]; root absorption, from the 2nd day after treating, FIG. 1) was “decreased obviously”, the “survival rate of the nymphs of the white-backed planthopper” value ([2]; 5 mg/L, 2nd day) was 85.5% and the “survival rate of the nymphs of the white-backed planthopper” value ([2]; 5 mg/L, 4th day) was 58.6%. For the same compound, the “survival rate of the nymphs of the white-backed planthopper” value ([2]; 20 mg/L, 2nd day) was 87.4%, the “survival rate of the nymphs of the white-backed planthopper” value ([2]; 20 mg/L, 4th day) was 54.3% and the “survival rate of the nymphs of the white-backed planthopper” value ([2]; 50 mg/L, 2nd day) was 81.3%. The “survival rate of the nymphs of the white-backed planthopper” value ([2]; 50 mg/L, 4th day) was 57.6%, the “stomach toxicity on the planthoppers” value ([2]; artificial diet, 5, 20 and 50 mg/L) was “no stomach toxicity” and the “survival rate of the brown planthopper” value ([3]; 20 mg/L) was 60.3%. The “survival rate of the brown planthopper” value ([3]; 100 mg/L) was 19.2%, the “survival rates of the nymphs of the brown planthopper, course” value [3, 8] was “decreased obviously” and the “content of the 4-hydroxybenzoic acid of the experimental group versus the control group” value [4] was 2.12 times. For the same compound, the “content of the γ-aminobutyric acid of the experimental group versus the control group” value [4] was 2.86 times, the “survival rate of the white-backed planthopper” value ([5]; 1 mg/L in nutrient solution, 8th day) was 41.3% and the “survival rate of white-backed planthopper nymphs” value ([5]; 10 mg/L in nutrient solution, 8th day) was 3.1%. For the same compound, the “survival rates of the nymphs of the white-backed planthopper, course” value ([5]; from the 2nd day after treating, FIG. 1) was “decreased obviously”, the “survival rates of the nymphs of the planthoppers” value ([6]; 5 mg/L, 24 hours after treating) was 92.0% and the “survival rates of the nymphs of the planthoppers” value ([6]; 5 mg/L, 48 hours after treating) was 92.0%. For the same compound, the “survival rates of the nymphs of the planthoppers” value ([6]; 20 mg/L, 24 hours after treating) was 93.1%, the “survival rates of the nymphs of the planthoppers” value ([6]; 20 mg/L, 48 hours after treating) was 91.6% and the “survival rates of the nymphs of the planthoppers” value ([6]; 50 mg/L, 24 hours after treating) was 92.0%. For the same compound, the “survival rates of the nymphs of the planthoppers” value ([6]; 50 mg/L, 48 hours after treating) was 90.8%, the “contact toxicity on the planthoppers” value ([6]; spotted 1 μL, 5, 20 and 50 mg/L) was “no contact toxicity” and the “survival rate of the white-backed planthopper” value ([7]; 20 mg/L, 8th day) was 66.1%. The “survival rate of the white-backed planthopper nymphs” value ([7]; 100 mg/L, 8th day) was 23.2% and the “survival rates of the nymphs of the white-backed planthopper, course” value [7, 8] was “decreased obviously”.

Reference: patent US20170367330A1, “Method for stimulating induced insect resistance of rice” (ZHENJIANG UNIVERSITY, priority 2015, published 2017)
